From ChEMBL document CHEMBL1201862, “PubChem BioAssay data set” (2004)
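How tested: cells in 96-well plates exposed to compound for 48 hours at five concentrations. GI50 is the concentration that inhibits growth by half.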 Activity calls are given as the source filed them. No stated cut-off is given here; in the data, active = GI50 up to about 1.1 µM and inactive = higher.

Experiments:
Experiment in all cases: NCI anticancer screen, dose series, 48 h
HCC 2998 = tested on: HCC 2998
RPMI-8226 = tested on: RPMI-8226
NCI-H460 = tested on: NCI-H460
PC-3 = tested on: PC-3
EKVX = tested on: EKVX
MDA-MB-231 = tested on: MDA-MB-231
K562 = tested on: K562
A549 = tested on: A549
NCI-H522 = tested on: NCI-H522
RXF 393 = tested on: RXF 393
HOP-62 = tested on: HOP-62
OVCAR-4 = tested on: OVCAR-4
UACC-257 = tested on: UACC-257
SNB-75 = tested on: SNB-75
KM12 = tested on: KM12
MOLT-4 = tested on: MOLT-4
LOX IMVI = tested on: LOX IMVI
SK-MEL-5 = tested on: SK-MEL-5
NCI-H226 = tested on: NCI-H226
NCI-H23 = tested on: NCI-H23

## NCc1ccc(O)c(O)c1O
HCC 2998
  GI50: > 66.4 µM (inactive)
RPMI-8226
  GI50: 26.9 µM (inactive)
NCI-H460
  GI50: 18.5 µM (inactive)
PC-3
  GI50: 33 µM (inactive)
EKVX
  GI50: 39.7 µM (inactive)
MDA-MB-231
  GI50: 19.7 µM (inactive)
K562
  GI50: 23.6 µM (inactive)
A549
  GI50: 27.6 µM (inactive)
NCI-H522
  GI50: > 59 µM (inactive)
RXF 393
  GI50: 40.7 µM (inactive)
HOP-62
  GI50: 46.6 µM (inactive)
OVCAR-4
  GI50: 26.1 µM (inactive)
UACC-257
  GI50: 30.8 µM (inactive)
SNB-75
  GI50: 26.4 µM (inactive)
KM12
  GI50: 24.3 µM (inactive)
MOLT-4
  GI50: 28.4 µM (inactive)
LOX IMVI
  GI50: 16.8 µM (inactive)
SK-MEL-5
  GI50: 21.7 µM (inactive)
NCI-H226
  GI50: > 46.8 µM (inactive)
NCI-H23
  GI50: 28.1 µM (inactive)

## O=c1/c(=C/c2ccccn2)sc2nc3cc4c(cc3n12)OCCO4
HCC 2998
  GI50: > 100 µM (inactive)
RPMI-8226
  GI50: > 100 µM (inactive)
NCI-H460
  GI50: > 100 µM (inactive)
PC-3
  GI50: > 100 µM (inactive)
MDA-MB-231
  GI50: > 100 µM (inactive)
K562
  GI50: > 100 µM (inactive)
A549
  GI50: > 100 µM (inactive)
NCI-H522
  GI50: > 100 µM (inactive)
RXF 393
  GI50: > 100 µM (inactive)
HOP-62
  GI50: > 100 µM (inactive)
OVCAR-4
  GI50: > 100 µM (inactive)
UACC-257
  GI50: > 100 µM (inactive)
SNB-75
  GI50: 91.8 µM (inactive)
KM12
  GI50: > 100 µM (inactive)
MOLT-4
  GI50: > 100 µM (inactive)
LOX IMVI
  GI50: > 100 µM (inactive)
SK-MEL-5
  GI50: > 100 µM (inactive)
NCI-H226
  GI50: > 100 µM (inactive)
NCI-H23
  GI50: > 100 µM (inactive)

## O=C(c1ccc(/N=C/c2ccccc2O)cc1)c1ccc(/N=C/c2ccccc2O)cc1
HCC 2998
  GI50: > 100 µM (inactive)
RPMI-8226
  GI50: > 100 µM (inactive)
NCI-H460
  GI50: > 100 µM (inactive)
PC-3
  GI50: > 100 µM (inactive)
EKVX
  GI50: > 100 µM (inactive)
MDA-MB-231
  GI50: > 100 µM (inactive)
K562
  GI50: > 100 µM (inactive)
A549
  GI50: > 100 µM (inactive)
NCI-H522
  GI50: > 100 µM (inactive)
RXF 393
  GI50: > 100 µM (inactive)
HOP-62
  GI50: > 100 µM (inactive)
OVCAR-4
  GI50: > 100 µM (inactive)
SNB-75
  GI50: > 100 µM (inactive)
KM12
  GI50: > 100 µM (inactive)
MOLT-4
  GI50: > 100 µM (inactive)
LOX IMVI
  GI50: > 100 µM (inactive)
SK-MEL-5
  GI50: 6.11 µM (inactive)
NCI-H226
  GI50: > 100 µM (inactive)
NCI-H23
  GI50: > 100 µM (inactive)

## C=CCC1(O)C(=O)OC2C(O)COC21O (stereo unspecified)
HCC 2998
  GI50: > 100 µM (inactive)
NCI-H460
  GI50: > 100 µM (inactive)
PC-3
  GI50: > 100 µM (inactive)
EKVX
  GI50: > 100 µM (inactive)
MDA-MB-231
  GI50: > 100 µM (inactive)
K562
  GI50: > 100 µM (inactive)
A549
  GI50: > 100 µM (inactive)
NCI-H522
  GI50: > 100 µM (inactive)
RXF 393
  GI50: > 100 µM (inactive)
HOP-62
  GI50: > 100 µM (inactive)
OVCAR-4
  GI50: > 100 µM (inactive)
UACC-257
  GI50: > 100 µM (inactive)
SNB-75
  GI50: 35.4 µM (inactive)
KM12
  GI50: > 100 µM (inactive)
MOLT-4
  GI50: > 100 µM (inactive)
LOX IMVI
  GI50: > 100 µM (inactive)
SK-MEL-5
  GI50: > 100 µM (inactive)
NCI-H226
  GI50: > 100 µM (inactive)
NCI-H23
  GI50: > 100 µM (inactive)

## CC1(C)CCCCCCCCCC(C)(CCCO)C1=O (stereo unspecified)
HCC 2998
  GI50: 17.7 µM (inactive)
RPMI-8226
  GI50: 26.5 µM (inactive)
NCI-H460
  GI50: 18.4 µM (inactive)
PC-3
  GI50: 14 µM (inactive)
EKVX
  GI50: 15.8 µM (inactive)
MDA-MB-231
  GI50: 15.2 µM (inactive)
K562
  GI50: 24.6 µM (inactive)
A549
  GI50: 15.5 µM (inactive)
NCI-H522
  GI50: 15.4 µM (inactive)
RXF 393
  GI50: 19.7 µM (inactive)
HOP-62
  GI50: 16.6 µM (inactive)
OVCAR-4
  GI50: 15.5 µM (inactive)
UACC-257
  GI50: 17.7 µM (inactive)
SNB-75
  GI50: 17.9 µM (inactive)
KM12
  GI50: 18.4 µM (inactive)
MOLT-4
  GI50: 14.1 µM (inactive)
LOX IMVI
  GI50: 17.6 µM (inactive)
SK-MEL-5
  GI50: 17.5 µM (inactive)
NCI-H226
  GI50: 16.1 µM (inactive)
NCI-H23
  GI50: 15.5 µM (inactive)

## COC(=O)c1c(OC(C)=O)ccc2c1c1c(OC(C)=O)c3ccccc3c(OC(C)=O)c1n2Cc1ccccc1
HCC 2998
  GI50: 1.85 µM (inactive)
RPMI-8226
  GI50: 1.52 µM (inactive)
NCI-H460
  GI50: 2.24 µM (inactive)
PC-3
  GI50: 1.55 µM (inactive)
EKVX
  GI50: 2.56 µM (inactive)
MDA-MB-231
  GI50: 4.09 µM (inactive)
K562
  GI50: 5.33 µM (inactive)
A549
  GI50: 2.75 µM (inactive)
NCI-H522
  GI50: 0.783 µM (active)
RXF 393
  GI50: 5.77 µM (inactive)
HOP-62
  GI50: 8.61 µM (inactive)
OVCAR-4
  GI50: 2.39 µM (inactive)
UACC-257
  GI50: 16.3 µM (inactive)
SNB-75
  GI50: 1.76 µM (inactive)
KM12
  GI50: 1.49 µM (inactive)
MOLT-4
  GI50: 7.46 µM (inactive)
SK-MEL-5
  GI50: 3.02 µM (inactive)
NCI-H226
  GI50: 10.9 µM (inactive)
NCI-H23
  GI50: 6.03 µM (inactive)

## O=C(ON=C1c2ccccc2C(Br)C(Br)c2ccccc21)c1ccccc1 (stereo unspecified)
HCC 2998
  GI50: 21.8 µM (inactive)
RPMI-8226
  GI50: 4.57 µM (inactive)
NCI-H460
  GI50: 13.4 µM (inactive)
PC-3
  GI50: 19.8 µM (inactive)
EKVX
  GI50: 23.1 µM (inactive)
MDA-MB-231
  GI50: 16.7 µM (inactive)
K562
  GI50: 2.95 µM (inactive)
A549
  GI50: 20.6 µM (inactive)
NCI-H522
  GI50: 1.69 µM (inactive)
RXF 393
  GI50: 14.1 µM (inactive)
HOP-62
  GI50: 12.7 µM (inactive)
OVCAR-4
  GI50: 13.2 µM (inactive)
UACC-257
  GI50: 15.6 µM (inactive)
SNB-75
  GI50: 21.6 µM (inactive)
KM12
  GI50: 17.9 µM (inactive)
MOLT-4
  GI50: 2.04 µM (inactive)
LOX IMVI
  GI50: 4.28 µM (inactive)
SK-MEL-5
  GI50: 17.1 µM (inactive)
NCI-H226
  GI50: 18 µM (inactive)
NCI-H23
  GI50: 19.4 µM (inactive)
